Results taken from the NIST ThermoML archive (doi:10.1021/je301301j).

Assay: molar heat capacity at constant pressure; xn = mol fraction of the nth substance listed
Settings: 293.15 K, Liquid, Flow calorimetry

C=CCCCC [hex-1-ene] + CCCCO
molar heat capacity at constant pressure [J/K/mol]
Settings | x2 = 0 | x2 = 0.1001 | x2 = 0.2 | x2 = 0.3002 | x2 = 0.3999 | x2 = 0.5018 | x2 = 0.5997 | x2 = 0.7002 | x2 = 0.7999 | x2 = 0.9
100 kPa | 179.2 | 190.4 | 191.6 | 192.1 | 188.5 | 187.6 | 184.9 | 182.6 | 178.7 | 176.2
5000 kPa | 174.9 | 187.5 | 188.7 | 189 | 186.7 | 185.6 | 183.1 | 180 | 177.5 | 175.7
10000 kPa | 172.7 | 184.7 | 186.3 | 186.4 | 184 | 183.6 | 180.6 | 178.7 | 175.1 | 174
15000 kPa | 169.9 | 182.6 | 183.1 | 185.1 | 182.5 | 182.1 | 178.5 | 177.1 | 173.8 | 172.1
20000 kPa | 168.1 | 178.4 | 179.9 | 182.8 | 180.1 | 179.8 | 176.1 | 175.8 | 172.4 | 170.7
25000 kPa | 165.7 | 176.7 | 178 | 180.1 | 178.8 | 178 | 174.8 | 173.5 | 170.7 | 169.3
